The subject of data set [1] is native DUBs (UCHL1, USP30 and JOSD1). Description: Competitive activity-based protein profiling with quantitative mass spectrometry in HEK-293T lysates. In kind it is binding. To be noted: block of labeling by DUB activity-based probes. The procedure:
Activity Based Protein Profiling (ABPP) assay. DUB targets were investigated using competitive ABPP with quantitative mass spectrometry. The ability to block labeling of 50 DUBs by ubiquitin-based DUB activity-based probes was quantitatively measured in HEK-293T lysates.
DUB ABPP of Compound Targets. Activity-based probes biotin-Ub-PA (UbiQ-076) and biotin-Ub-VME (UbiQ-054) were obtained from UbiQ Bio. DUB Activity based protein profiling was performed using conditions modified from those in Schauer, et al., 2020, Scientific Reports, 10:1-15, based on work by Lawson, et al., 2017 Oncotarget, 8:51296-316. HEK 293T cells were lysed (50 mM Tris pH 8.0, 150 mM NaCl, 5 mM MgC2, 0.5 mM EDTA, 0.5% NP-40, 10% glycerol, 1 mM tris(2-carboxyethyl)phosphine (TCEP), protease and phosphatase inhibitors) and the lysate was clarified by centrifugation, then diluted to 10 mg/mL. 200 μL aliquots were incubated at the indicated compound concentrations or DMSO for 5 hours at room temperature, final DMSO concentration 0.5%. Afterwards, the treated lysates were incubated with 1 μM each of Biotin-Ub-PA and Biotin-Ub-VME for 90 minutes at room temperature. […]
Specifically, quantitative mass spectrometry was utilized to measure the ability of compounds 1 and 2 to block labeling of […] native DUBs by ubiquitin-based DUB activity-based probes in HEK-293T lysates. […]

A further data set concerns the target JAK2-V617F (Homo sapiens (Human), UniProt O60674, V617F). Nature of the data set: JAK2-V617F protein loss in human AML cell lines by western blotting. Format: cell-based. To be noted: HEL cells, co-treatment with cycloheximide. The method, then:
Immunoblotting and Immunoprecipitation. Protein lysate preparation, immunoblotting, and immunoprecipitation were carried out as previously described (Lamberto, et al., 2017 Cell Chem Biol., 224(12):1490-500 e11). Briefly, 0.7×10^6 cells were treated with compounds 1 and 2 at 0, 5, 10, and 20 μM for 16 or 24 hours, cells were collected, and lysate was prepared in radioimmunoprecipitation assay (RIPA) buffer, JAK family and downstream signaling protein levels were detected by western blotting with the indicated antibodies. For immunoprecipitation, 1 mg protein for each sample was prepared and 1 μg antibody was used, immunoglobulin G (IgG) was added in same amount as nontargeting control.
(Immunoblotting shows a protein as a band on a membrane.)

Turning to `Cc1noc(C)c1-c1cccc2nc(NC(=O)[C@H]3CCN(C#N)C3)sc12` [Compound 2, (S)-1-cyano-N-(7-(3,5-dimethylisoxazol-4-yl)benzo[d]thiazol-2-yl)pyrrolidine-3-carboxamide], the “target engagement of UCHL1, USP30 and JOSD1” value in data set [1] is reported as “dose-dependent target engagement”. Also, the JAK2-V617F protein half-life entry on JAK2-V617F is on record as “shorten JAK2-V617F protein half-life”.
